Data reported in patent publication US11214803B2, “Modulators of YAP1 expression” (Ionis Pharmaceuticals, Inc., priority 2019, dated 2022).
Strand notation (5' to 3'): a small letter for the sugar, then the base; units joined by * are phosphorothioate-linked, units joined directly phosphodiester-linked; [ ] holds rarer units or linkages, { } end groups; capitals alone tell only the bases. e = 2'-O-(2-methoxyethyl) (MOE); k = constrained ethyl (cEt); [5mC] = 5-methylcytosine; d = 2'-deoxy (DNA); m = 2'-O-methyl

Tests used:
Type in all cases: cell-based
[1] = tested on: Yap1 mRNA; test: Antisense inhibition of human Yap1 in SNU-449 cells by modified oligonucleotides, single dose (Example 5, RTS36584)
Description: Modified oligonucleotides with additional chemistry modifications were designed to target a Yap1 nucleic acid and were tested for their effect on Yap1 mRNA level in SNU-449 cells. The modified oligonucleotides were tested in a series of experiments that had similar culture conditions. Cultured SNU-449 cells at a density of 10,000 cells per well were treated using free uptake with 2,000 nM of modified oligonucleotide. After a treatment period of approximately 48 hours, RNA was isolated from the cells and Yap1 mRNA levels were measured by quantitative real-time RTPCR. Human primer probe set RTS36584 was used to measure mRNA levels. Yap1 mRNA levels were normalized to total RNA content, as measured by RIBOGREEN®. Results are presented in the tables below as percent control of the amount of Yap1 mRNA relative to untreated control cells (% UTC). The modified oligonucleotides with percent control values marked with an asterisk (*) target the amplicon region of the primer probe set. Additional assays may be used to measure the potency and efficacy of the modified oligonucleotides targeting the amplicon region.
Several different chemistry modifications were tested, which are specified in the Chemistry Notation column of the tables below, wherein the notation “d” refers to a 2′-deoxyribose sugar, the notation “s” refers to a phosphorothioate (P═S) internucleoside linkage, the notation “k” refers to a cEt modified sugar, the notation “y” refers to a 2′-O-methyl ribose sugar, the notation “e” refers to a MOE modified sugar, and the notation “^mC” refers to a 5-methylcytosine.
“Start site” indicates the 5′-most nucleoside to which the gapmer is targeted in the human gene sequence. “Stop site” indicates the 3′-most nucleoside to which the gapmer is targeted human gene sequence. […] Activity of the modified oligonucleotide may be defined in a different experiment.

[2] = tested on: Yap1 mRNA; test: Antisense inhibition of human Yap1 in A-431 cells by cEt gapmers, single dose (Example 2, RTS4814); settings: 3-10-3 cEt gapmers targeting SEQ ID NO.: 1, and 2
Procedure, shortened: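 Single-dose knockdown screen of 3-10-3 cEt phosphorothioate gapmers at 2,000 nM added by free uptake to A-431 cells. After roughly 48 h, RNA was isolated and Yap1 transcript measured by RT-qPCR, with results given as % UTC.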

[3] = tested on: Yap1 mRNA; test: Dose-dependent inhibition of human Yap1 in A-431 cells (Example 8, 10,000 cells per well, RTS4814); settings: free uptake, approximately 48 hours, RTS4814; for Yap1 mRNA, % UTC: A-431 cells, 10,000 cells per well; for IC50: A-431 cells, linear regression on log/linear plot
Procedure, shortened: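 A-431 cells (10,000/well) dosed with modified oligonucleotides by free uptake; Yap1 mRNA measured ~48 h later with primer-probe set RTS4814, normalized to total RNA (RIBOGREEN). Values are % of untreated control; IC50 from linear regression on log/linear plot.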

[4] = Table 42 (separate experiment), SNU-449 cells, 10,000 cells per well, free uptake, 2,000 nM modified oligonucleotide, approximately 48 hours, RTS36584, normalized to RIBOGREEN, Yap1 mRNA relative to untreated control cells
[5] = Table 50, Yap1 mRNA remaining as percent of untreated control (UT), SNU-449 cells, single dose
[6] = Yap1 mRNA as percent of untreated control, A-431 cells, Table 30
[7] = Table 32, Yap1 mRNA, percent of untreated control
[8] = Yap1 mRNA as percent of untreated control, A-431 cells, Table 31

Substance | Yap1 mRNA, % UTC ([3]; 31.3 nM) | Yap1 mRNA, % UTC ([3]; 125.0 nM) | Yap1 mRNA, % UTC ([3]; 500.0 nM) | Yap1 mRNA, % UTC ([3]; 2000.00 nM) | IC50 [3] | further results
1198835 (kT*kT*dA*dA*dG*d[5mC]*dA*d[5mC]*dT*dT*dT*kT*eA*k[5mC]*eA*kT; antisense) [Compound 1198835] |  |  |  |  |  | YAP1 (% UT) ([1]; Table 46, Yap1 mRNA as percent of untreated control, SNU-449 cells, single dose): 85 % UT
1198684 (antisense kA*kA*d[5mC]*dT*d[5mC]*dT*dT*dA*dT*dA*dT*dG*kG*eT*kT*eT) [Compound 1198684] |  |  |  |  |  | YAP1 (% UTC) [1, 4]: 75 % UTC
1198701 (kT*kT*dA*dA*dA*dG*dT*dG*dT*dA*dT*dG*kT*e[5mC]*kA*eG; antisense) [Compound 1198701] |  |  |  |  |  | YAP1 (% UTC) [1, 4]: 46 % UTC
1198215 (kT*k[5mC]*dT*dA*dT*dA*dT*dT*dA*dG*dA*eG*eT*eA*kT*kG; antisense) [Compound 1198215] |  |  |  |  |  | YAP1 (% UTC) [1, 4]: 120 % UTC
1198755 (kT*eG*k[5mC]*dT*dT*dT*dG*dG*dA*dA*dG*dA*eT*e[5mC]*kT*kG) [Compound 1198755] |  |  |  |  |  | YAP1 (% UTC) ([1]; Table 40 (separate experiment), SNU-449 cells, 10,000 cells per well, free uptake, 2,000 nM oligonucleotide, approx. 48 hours, RTS36584, normalized to RIBOGREEN, Yap1 mRNA relative to untreated control): 32 % UTC
1197209 (antisense kT*kG*kT*dA*dA*dT*dA*dT*dT*dG*d[5mC]*dA*dA*kT*k[5mC]*kT) [Compound 1197209] |  |  |  |  |  | YAP1 (% UT) ([1]; Yap1 mRNA, percent of untreated control, modified oligonucleotides targeting SEQ ID NO: 1 and 2, Table 47): 33 % UT
1198332 (kT*k[5mC]*kA*dG*dA*dT*dT*dT*dA*dG*dG*dA*kT*eG*k[5mC]*eA; antisense) [Compound 1198332] |  |  |  |  |  | YAP1 (% UT) ([1]; Table 48, Yap1 mRNA level relative to untreated control, modified oligonucleotides targeting SEQ ID NO.: 1 and 2): 58 % UT
1198768 (kA*eT*kA*dT*dG*dG*dT*dT*dT*dT*dG*dT*eG*eT*kG*kT; antisense) [Compound 1198768] |  |  |  |  |  | YAP1 (% UTC) ([1]; Table 41, SNU-449 cells, 10,000 cells per well, free uptake, 2,000 nM modified oligonucleotide, approximately 48 hours, RTS36584, normalized to RIBOGREEN, Yap1 mRNA relative to untreated control cells): 61 % UTC
1198386 (kT*dA*dT*dA*dT*dT*dA*dG*dA*dG*dT*kA*eT*kG*eT*kG; antisense) [Compound 1198386] |  |  |  |  |  | YAP1 (% UTC) ([1]; Table 39, SNU-449 cells, 10,000 cells per well, free uptake, 2,000 nM oligonucleotide, approx. 48 hours, RTS36584, normalized to RIBOGREEN, Yap1 mRNA relative to untreated control): 77 % UTC
1197246 (antisense kA*kG*k[5mC]*dA*mC*dT*dT*dT*dT*dA*d[5mC]*dA*dT*kT*kA*kG) [Compound 1197246] |  |  |  |  |  | YAP1 (% UT) [1, 5]: 33 % UT
1198965 (k[5mC]*kT*dT*dT*dA*dA*dA*dG*dT*dG*dT*kA*dT*kG*dT*k[5mC]; antisense) [Compound 1198965] |  |  |  |  |  | YAP1 (% UTC) ([1]; Table 45, Yap1 mRNA as percent of untreated control, SNU-449 cells, single dose): 95 % UTC
1197292 (kA*k[5mC]*kT*dT*mU*dT*dA*d[5mC]*dA*dT*dT*dA*dG*kG*kA*kA; antisense) [Compound 1197292] |  |  |  |  |  | YAP1 (% UT) [1, 5]: 84 % UT
1197284 (kA*kG*kT*dA*mU*dG*dT*dG*dG*d[5mC]*dA*dA*dT*kA*kA*kT; antisense) [Compound 1197284] |  |  |  |  |  | YAP1 (% UT) [1, 5]: 35 % UT
1198255 (k[5mC]*kA*dA*d[5mC]*dT*d[5mC]*dT*dT*dA*dT*dA*eT*eG*eG*kT*kT; antisense) [Compound 1198255] |  |  |  |  |  | YAP1 (% UTC) ([1]; Table 43 experiment, SNU-449 cells, 10,000 cells per well, free uptake, 2,000 nM, approximately 48 hours, RTS36584, Yap1 mRNA normalized to RIBOGREEN, relative to untreated control cells): 84 % UTC
1075824 (kG*kT*kA*dT*dT*dA*dG*dA*dG*dG*dT*dT*d[5mC]*k[5mC]*kA*kG; antisense) [compound 1075824] | 33 % UTC | 10 % UTC | 5 % UTC | 3 % UTC | < 20 nM | YAP1 (% UTC) [2, 6]: 3 % UTC
1076370 (antisense kG*kA*kT*dT*dA*dT*dT*d[5mC]*dG*dG*dT*dA*dT*kT*kT*kT) [compound 1076370] | 46 % UTC | 12 % UTC | 4 % UTC | 2 % UTC | < 20 nM | YAP1 (% UTC) [2, 7]: 2 % UTC
1074418 (kT*kT*k[5mC]*dT*dT*dT*dA*dG*dA*dG*d[5mC]*d[5mC]*dA*kA*k[5mC]*kT; antisense) [compound 1074418] | 55 % UTC | 26 % UTC | 9 % UTC | 4 % UTC | < 20 nM | YAP1 (% UTC) [2, 7]: 4 % UTC
1074576 (DNA kA*kT*kG*d[5mC]*dA*d[5mC]*dA*dT*dT*dA*dT*dG*dA*kA*k[5mC]*k[5mC]) [compound 1074576] | 69 % UTC | 41 % UTC | 14 % UTC | 9 % UTC | 100 nM | YAP1 (% UTC) [2, 6]: 7 % UTC
1074675 (antisense kA*kA*kA*dT*dT*dA*dT*dA*dG*dG*d[5mC]*dA*d[5mC]*kT*k[5mC]*k[5mC]) [compound 1074675] | 47 % UTC | 18 % UTC | 6 % UTC | 3 % UTC | < 20 nM | YAP1 (% UTC) ([2]; Table 33, Yap1 mRNA, percent of untreated control): 6 % UTC
1074800 (k[5mC]*kA*kA*dA*dT*dA*dG*dT*dG*d[5mC]*dT*dT*dT*kG*kG*kA; antisense) [compound 1074800] | 48 % UTC | 21 % UTC | 10 % UTC | 7 % UTC | < 20 nM | YAP1 (% UTC) [2, 6]: 6 % UTC
1074290 (antisense k[5mC]*kT*kG*dA*d[5mC]*dT*dG*dA*dT*dT*d[5mC]*dT*d[5mC]*kT*kG*kG) [compound 1074290] | 49 % UTC | 17 % UTC | 9 % UTC | 7 % UTC | < 20 nM | YAP1 (% UTC) [2, 7]: 5 % UTC
1074480 (kT*k[5mC]*kA*dT*dT*dT*dG*d[5mC]*d[5mC]*dT*dA*dG*dG*kT*kT*k[5mC]; antisense) [compound 1074480] | 33 % UTC | 9 % UTC | 5 % UTC | 3 % UTC | < 20 nM | YAP1 (% UTC) [2, 6]: 3 % UTC
1074608 (DNA kG*kT*kT*dA*d[5mC]*dA*dT*d[5mC]*dA*dT*d[5mC]*dT*d[5mC]*kT*kT*k[5mC]) [compound 1074608] | 49 % UTC | 20 % UTC | 9 % UTC | 7 % UTC | < 20 nM | YAP1 (% UTC) [2, 6]: 5 % UTC
1074577 (DNA kT*kA*kT*dT*dT*d[5mC]*dT*dG*dT*d[5mC]*dA*dT*dG*k[5mC]*kA*k[5mC]) [compound 1074577] | 33 % UTC | 10 % UTC | 4 % UTC | 3 % UTC | < 20 nM | YAP1 (% UTC) [2, 8]: 3 % UTC
1074610 (DNA kT*k[5mC]*kT*dA*dG*dT*dT*dA*d[5mC]*dA*dT*d[5mC]*dA*kT*k[5mC]*kT) [compound 1074610] | 57 % UTC | 20 % UTC | 10 % UTC | 7 % UTC | < 20 nM | YAP1 (% UTC) [2, 7]: 5 % UTC
1074417 (kT*k[5mC]*kT*dT*dT*dA*dG*dA*dG*d[5mC]*d[5mC]*dA*dA*k[5mC]*kT*kG; antisense) [compound 1074417] | 68 % UTC | 26 % UTC | 7 % UTC | 3 % UTC | 100 nM | YAP1 (% UTC) [2, 8]: 2 % UTC
